# Data taken from patent publication US20110092624A1, “INK COMPOSITION AND METHOD FOR PRODUCING THE SAME” (SEIKO EPSON CORPORATION, priority 2009, published 2011).
# Test: Solubility of acidic dye and by-product in solvents, rated by filter cake weight
# Format: physicochemical
# Conditions: 10 g solvent, filtered 0.2 μm, dried filter cake weighed
# Protocol: The acidic dye was C. I. Acid Blue 290. The acidic dye was added to 10 g of each organic solvent and the organic solvent was agitated, whereby the acidic dye was dissolved in the organic solvent. A solution thereby obtained was filtered through an Omnipore membrane filter, having a pore size of 0.2 μm, available from Nihon Millipore K.K. A filter cake thereby obtained was dried and then weighed. A by-product represented by the following formula was measured for solubility in the same manner as that used to measure the acidic dye:
# The solubility of the acidic dye and by-product in each organic solvent was evaluated on the basis of the weight of the filter cakes. Evaluation standards were as described below.
# A rating of 5: 0 to less than 0.2 g of a filter cake
# A rating of 4: 0.2 to less than 0.4 g of a filter cake
# A rating of 3: 0.4 to less than 0.6 g of a filter cake
# A rating of 2: 0.6 to less than 0.8 g of a filter cake
# A rating of 1: 0.8 g or more of a filter cake
substance,measurement,setting,value
C. I. Acid Blue 290 [Acidic dye],Solubility rating,Acetone,1 (A rating of 1: 0.8 g or more of a filter cake)
same,Solubility rating,Acrylonitrile,3 (A rating of 3: 0.4 to less than 0.6 g of a filter cake)
same,Solubility rating,Chloroform,4 (A rating of 4: 0.2 to less than 0.4 g of a filter cake)
same,Solubility rating,Ethanol,3 (A rating of 3: 0.4 to less than 0.6 g of a filter cake)
same,Solubility rating,Hexane,2 (A rating of 2: 0.6 to less than 0.8 g of a filter cake)
same,Solubility rating,Methanol,5 (A rating of 5: 0 to less than 0.2 g of a filter cake)
same,Solubility rating,Tetrahydrofuran,4 (A rating of 4: 0.2 to less than 0.4 g of a filter cake)
same,Solubility rating,Water,1 (A rating of 1: 0.8 g or more of a filter cake)
